Target: human LPAR1 (Homo sapiens (Human), UniProt Q92633)
Test: LPAR1 intracellular calcium mobilization assay (antagonist mode, FLIPR)
Format: cell-based
Details: CHO-K1 EDG2 cells expressing human LPAR1, LPA 18:2 at EC80 (100 nM), test compound 0.5 nM to 10 μM

Chain of human LPAR1 (Q92633 whole entry): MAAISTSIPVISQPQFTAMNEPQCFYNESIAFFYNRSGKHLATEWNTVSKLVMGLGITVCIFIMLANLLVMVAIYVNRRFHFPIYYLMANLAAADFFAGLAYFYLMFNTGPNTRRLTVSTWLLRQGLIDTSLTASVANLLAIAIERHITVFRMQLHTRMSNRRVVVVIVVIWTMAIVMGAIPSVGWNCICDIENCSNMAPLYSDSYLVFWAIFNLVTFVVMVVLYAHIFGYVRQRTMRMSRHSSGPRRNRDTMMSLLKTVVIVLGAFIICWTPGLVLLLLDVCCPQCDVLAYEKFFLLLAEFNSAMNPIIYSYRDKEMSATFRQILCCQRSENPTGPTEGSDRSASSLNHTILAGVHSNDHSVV

| SMILES | EC50 |
| --- | --- |
| Cc1ccc(C(=O)Nc2ccc(-c3nnn(C)c3NC(=O)O[C@H](C)c3cc(F)cnc3F)nc2)cn1 [Compound 221, (R)-1-(2,5-difluoropyridin-3-yl)ethyl (1-methyl-4-(5-(6-methylnicotinamido)pyridin-2-yl)-1H-1,2,3-triazol-5-yl)carbamate] | 374 nM |
| C[C@@H](OC(=O)Nc1c(-c2ccc(NC(=O)[C@@H]3C[C@H]3[N+](=O)[O-])cn2)nnn1C)c1cc(F)cnc1F (mixture of isomers) [Compound 211, (R)-1-(2,5-difluoropyridin-3-yl)ethyl (1-methyl-4-(5-((1RS,2RS)-2-nitrocyclopropane-1-carboxamido)pyridin-2-yl)-1H-1,2,3-triazol-5-yl)carbamate] | 37.4 nM |
| C[C@@H](OC(=O)Nc1c(-c2ccc(NC(=O)C3(C(F)F)CC3)cn2)nnn1C)c1cc(F)cnc1F [Compound 165, (R)-1-(2,5-difluoropyridin-3-yl)ethyl (4-(5-(1-(difluoromethyl)cyclopropane-1-carboxamido)pyridin-2-yl)-1-methyl-1H-1,2,3-triazol-5-yl)carbamate] | 487 nM |
| C[C@@H](OC(=O)Nc1c(-c2ccc(NC(=O)c3cc(F)nc(F)c3)cn2)nnn1C)c1cc(F)cnc1F [Compound 244, (R)-1-(2,5-difluoropyridin-3-yl)ethyl (4-(5-(2,6-difluoroisonicotinamido)pyridin-2-yl)-1-methyl-1H-1,2,3-triazol-5-yl)carbamate] | 131 nM |
| C[C@@H](OC(=O)Nc1c(-c2ccc(NC(=O)[C@]3(C#N)C[C@H]3C(F)F)cn2)nnn1C)c1cc(F)cnc1F [Compound 245, (R)-1-(2,5-difluoropyridin-3-yl)ethyl (4-(5-((1R,2R)-1-cyano-2-(difluoromethyl)cyclopropane-1-carboxamido)pyridin-2-yl)-1-methyl-1H-1,2,3-triazol-5-yl)carbamate] | 11.7 nM |
| C[C@@H](OC(=O)Nc1c(-c2ccc(NC(=O)[C@H]3C[C@H](F)C3)cn2)nnn1C)c1cccnc1Cl [Compound 62, (R)-1-(2-chloropyridin-3-yl)ethyl (4-(5-((1r,3R)-3-fluorocyclobutane-1-carboxamido)pyridin-2-yl)-1-methyl-1H-1,2,3-triazol-5-yl)carbamate] | 110 nM |
| C[C@@H](OC(=O)Nc1c(-c2cnc(NC(=O)c3ccc(Cl)nc3)cn2)nnn1C)c1cc(F)cnc1F [Compound 320, (R)-1-(2,5-difluoropyridin-3-yl)ethyl (4-(5-(6-chloronicotinamido)pyrazin-2-yl)-1-methyl-1H-1,2,3-triazol-5-yl)carbamate] | 131 nM |
| C[C@@H](OC(=O)Nc1c(-c2ccc(NC(=O)C3(C#N)CCOCC3)cn2)nnn1C)c1cccnc1Cl [Compound 95, (R)-1-(2-chloropyridin-3-yl)ethyl (4-(5-(4-cyanotetrahydro-2H-pyran-4-carboxamido)pyridin-2-yl)-1-methyl-1H-1,2,3-triazol-5-yl)carbamate] | 309 nM |
| Cc1ncc(C(=O)Nc2ccc(-c3nnn(C)c3NC(=O)O[C@H](C)c3cc(F)cnc3F)nc2)cn1 [Compound 234, (R)-1-(2,5-difluoropyridin-3-yl)ethyl (1-methyl-4-(5-(2-methylpyrimidine-5-carboxamido)pyridin-2-yl)-1H-1,2,3-triazol-5-yl)carbamate] | 136 nM |
| C[C@@H](OC(=O)Nc1c(-c2ccc(NC(=O)C3(C#N)C(C#N)C3(C)C)cn2)nnn1C)c1cccnc1Cl (stereo partly drawn) [Compound 145, (R)-1-(2-chloropyridin-3-yl)ethyl (4-(5-(1,3-dicyano-2,2-dimethylcyclopropane-1-carboxamido)pyridin-2-yl)-1-methyl-1H-1,2,3-triazol-5-yl)carbamate] | 184 nM |
| C[C@@H](OC(=O)Nc1c(-c2ccc(NC(=O)[C@@H]3C[C@H]3c3ccc(F)nc3)cn2)nnn1C)c1cc(F)cnc1F (mixture of isomers) [Compound 237, (R)-1-(2,5-difluoropyridin-3-yl)ethyl (4-(5-((1RS,2RS)-2-(6-fluoropyridin-3-yl)cyclopropane-1-carboxamido)pyridin-2-yl)-1-methyl-1H-1,2,3-triazol-5-yl)carbamate] | 19.3 nM |
| C[C@@H](OC(=O)Nc1c(-c2ccc(NC(=O)C3(C#N)CC3C(F)(F)F)cn2)nnn1C)c1cccnc1Cl (stereo partly drawn) [Compound 147, (R)-1-(2-chloropyridin-3-yl)ethyl (4-(5-(1-cyano-2-(trifluoromethyl)cyclopropane-1-carboxamido)pyridin-2-yl)-1-methyl-1H-1,2,3-triazol-5-yl)carbamate] | 33.9 nM |
| C[C@@H](OC(=O)Nc1c(-c2ccc(NC(=O)c3ccnc(S(C)(=O)=O)c3)cn2)nnn1C)c1cc(F)cnc1F [Compound 273, (R)-1-(2,5-difluoropyridin-3-yl)ethyl (1-methyl-4-(5-(2-(methylsulfonyl)isonicotinamido)pyridin-2-yl)-1H-1,2,3-triazol-5-yl)carbamate] | 248 nM |
| C[C@@H](OC(=O)Nc1c(-c2ccc(NC(=O)C3(F)CC(F)C3)cn2)nnn1C)c1cccnc1Cl (stereo partly drawn) [Compound 131, (R)-1-(2-chloropyridin-3-yl)ethyl (4-(5-(1,3-difluorocyclobutane-1-carboxamido)pyridin-2-yl)-1-methyl-1H-1,2,3-triazol-5-yl)carbamate] | 260 nM |
| C[C@@H](OC(=O)Nc1c(-c2ccc(NC(=O)c3ccc(Cl)nc3)cn2)nnn1C)c1cccnc1F [Compound 292, (R)-1-(2-fluoropyridin-3-yl)ethyl (4-(5-(6-chloronicotinamido)pyridin-2-yl)-1-methyl-1H-1,2,3-triazol-5-yl)carbamate] | 143 nM |
| C[C@@H](OC(=O)Nc1c(-c2ccc(NC(=O)C3CC(F)(F)C3)cn2)nnn1C)c1cc(F)cnc1F [Compound 28, (R)-1-(2,5-difluoropyridin-3-yl)ethyl (4-(5-(3,3-difluorocyclobutane-1-carboxamido)pyridin-2-yl)-1-methyl-1H-1,2,3-triazol-5-yl)carbamate] | 29.1 nM |
| CC(=O)Nc1cnc(-c2nnn(C)c2NC(=O)O[C@H](C)c2cccnc2Cl)cc1F [Compound 10, (R)-1-(2-chloropyridin-3-yl)ethyl (4-(5-acetamido-4-fluoropyridin-2-yl)-1-methyl-1H-1,2,3-triazol-5-yl)carbamate] | 1020 nM |
| C[C@@H](OC(=O)Nc1c(-c2ccc(NC(=O)[C@H]3[C@H](C4CC4)C3(F)F)cn2)nnn1C)c1cc(F)cnc1F (mixture of isomers) [Compound 248, (R)-1-(2,5-difluoropyridin-3-yl)ethyl (4-(5-((1RS,2SR)-3,3-difluoro-[1,1′-bi(cyclopropane)]-2-carboxamido)pyridin-2-yl)-1-methyl-1H-1,2,3-triazol-5-yl)carbamate] | 29.8 nM |
| C[C@@H](OC(=O)Nc1c(-c2ccc(NC(=O)[C@H]3C[C@H](NCC(F)(F)F)C3)cn2)nnn1C)c1cccnc1Cl [Compound 306, (R)-1-(2-chloropyridin-3-yl)ethyl (1-methyl-4-(5-((1r,3R)-3-((2,2,2-trifluoroethyl)amino)cyclobutane-1-carboxamido)pyridin-2-yl)-1H-1,2,3-triazol-5-yl)carbamate] | 99.7 nM |
| C[C@@H](OC(=O)Nc1c(-c2cnc(NC(=O)c3cnc(C(F)F)nc3)cn2)nnn1C)c1cccnc1F [Compound 327, (R)-1-(2-fluoropyridin-3-yl)ethyl (4-(5-(2-(difluoromethyl)pyrimidine-5-carboxamido)pyrazin-2-yl)-1-methyl-1H-1,2,3-triazol-5-yl)carbamate] | 255 nM |
| C[C@@H](OC(=O)Nc1c(-c2ccc(NC(=O)c3ccc(Cl)nc3F)cn2)nnn1C)c1cc(F)cnc1F [Compound 262, (R)-1-(2,5-difluoropyridin-3-yl)ethyl (4-(5-(6-chloro-2-fluoronicotinamido)pyridin-2-yl)-1-methyl-1H-1,2,3-triazol-5-yl)carbamate] | 23.7 nM |
| CC(OC(=O)Nc1c(-c2ccc(NC(=O)C3(C#N)CC3)cn2)nnn1C)c1ccc(F)nc1Cl (stereo not drawn) [Compound 181, 1-(2-chloro-6-fluoropyridin-3-yl)ethyl (4-(5-(1-cyanocyclopropane-1-carboxamido)pyridin-2-yl)-1-methyl-1H-1,2,3-triazol-5-yl)carbamate] | 428 nM |
| C[C@@H](OC(=O)Nc1c(-c2ncc(NC(=O)C3(C#N)CC3)cn2)nnn1C)c1cc(F)cnc1Cl [Compound 329, (R)-1-(2-chloro-5-fluoropyridin-3-yl)ethyl (4-(5-(1-cyanocyclopropane-1-carboxamido)pyrimidin-2-yl)-1-methyl-1H-1,2,3-triazol-5-yl)carbamate] | 749 nM |
| C[C@@H](OC(=O)Nc1c(-c2ccc(NC(=O)C3(c4cccnc4)CC(F)(F)C3)cn2)nnn1C)c1cccnc1Cl [Compound 198, (R)-1-(2-chloropyridin-3-yl)ethyl (4-(5-(3,3-difluoro-1-(pyridin-3-yl)cyclobutane-1-carboxamido)pyridin-2-yl)-1-methyl-1H-1,2,3-triazol-5-yl)carbamate] | 613 nM |
| C[C@@H](OC(=O)Nc1c(-c2ccc(NC(=O)c3cnc(C#N)nc3)cn2)nnn1C)c1cc(F)cnc1F [Compound 235, (R)-1-(2,5-difluoropyridin-3-yl)ethyl (4-(5-(2-cyanopyrimidine-5-carboxamido)pyridin-2-yl)-1-methyl-1H-1,2,3-triazol-5-yl)carbamate] | 26.5 nM |
| C[C@@H](OC(=O)Nc1c(-c2ccc(NC(=O)[C@@H]3C[C@@H]3C#N)cn2)nnn1C)c1cccnc1Cl [Compound 137, (R)-1-(2-chloropyridin-3-yl)ethyl (4-(5-((1R,2S)-2-cyanocyclopropane-1-carboxamido)pyridin-2-yl)-1-methyl-1H-1,2,3-triazol-5-yl)carbamate] | 1090 nM |
| C[C@@H](OC(=O)Nc1c(-c2ccc(NC(=O)C3(C(F)(F)F)CC3)cn2)nnn1C)c1cccnc1Cl [Compound 55, (R)-1-(2-chloropyridin-3-yl)ethyl (1-methyl-4-(5-(1-(trifluoromethyl)cyclopropane-1-carboxamido)pyridin-2-yl)-1H-1,2,3-triazol-5-yl)carbamate] | 478 nM |

— patent US11912686B2 (Gilead Sciences, Inc., priority 2020, dated 2024)
